Data published in patent US20190316085A1, “Methods Of T-Lymphocyte Expansion” (Cambridge Enterprise Limited, priority 2015, published 2019).

Tests used:
PDH-E1α = assay: Immunoblot for phospho-PDH E1α (S232) in treated CD8+ T-lymphocytes; format: cell-based, mouse; details: 16 hours treatment
Procedure: (§1) FIG. 6A showns immunoblot analysis for HIF-1α, HDAC1, phospho-PDH E1α (S232) and total PDH-E1α in response to increasing concentrations of S-2HG-octyl ester or R-2HG-octyl ester, or 10 mM of the free acid forms of S-2HG or R-2HG for 16 hours. Cells were activated for 48 h with αCD3+αCD28 antibodies and then expanded for a further 4 days in the presence of IL-2 followed by treatment with the indicated concentration of S-2HG-octyl ester or R-2HG octyl ester, or 10 mM of the free acid forms of S-2HG or R-2HG for 16 hours. The arrow indicates HIF-1α protein.
(§2) Nuclear and cytosolic fractions were prepared from cells with the NE-PER kit (Thermo Scientific) and separated by SDS-PAGE. Proteins were transferred to PVDF membranes and then blocked in 5% milk prepared in phosphate-buffered saline (PBS) plus 0.05% Tween 20. Membranes were then incubated with primary antibodies overnight at 4° C. and horseradish peroxidase (HRP)-conjugated secondary antibodies for 1 h the next day. The following primary antibodies were used at a dilution of 1:1000: HIF1α (Novus), HIF2α (Novus), PDH-E1α (Abcam), PDH-E1α pS232 (Calbiochem), LaminB1 (Abcam), HDAC1 (Abcam), β-tubulin (Abcam), 4E-BP1 (Cell Signalling), phospho-4E-BP1 (S65) (Cell Signalling), phospho-4E-BP1 (T37/T46) (Cell Signalling) S6K (Cell Signalling), phopho-S6K (T389) (Cell Signalling), phopho-S6K (S371) (Cell Signalling).

mTOR = mTOR signalling immunoblot; format: cell-based, mouse; details: 100 μM to 500 μM
Procedure: as §2

OT-I CD8^+ T-lymphocytes = assay: Survival in the absence of IL-2 supplementation; format: cell-based, mouse; details: 0.5 mM
Procedure: OT-I CD8^+ T-lymphocytes were incubated with target and control cells for 4 hours. n=3 mice per condition. […]
Cells were counted on an ADAM-MC automated cell counter (NanoEnTek) and viability was assessed by the exclusion of propidium iodide. Cell volume was determined using a Z2 Coulter counter (Beckman Coulter).

CD8^+ T-lymphocytes = assay: Flow cytometry of CD44 and CD62L surface expression; format: cell-based, mouse; details: for CD62L effect when treating CD62L^low CD44^high effector cells: 0.5 mM added after 7 days of vehicle; for reversibility of the CD62L effect upon withdrawal of treatment: 0.5 mM for 7 days then washout, followed 9 more days; for formation of a CD62L^high CD44^high population / effect on CD62L when HIF-1α is absent / CD62L downregulation in HIF-2a null cells: 0.5 mM; for formation of a CD62L^high CD44^high population: with IL-2, antigen specific (OT-I) and polyclonal CD8+ T-lymphocytes; for effect on CD62L when HIF-1α is absent: Hif1α^−/− CD8+ T-lymphocytes; for CD62L downregulation in HIF-2a null cells: Hif2α^−/− CD8+ T-lymphocytes, versus wild type controls
Text: Data are representative of n=4 individual mice.
Data are representative of 3 mice per genotype.
Data are representative of 2 mice per genotype.
Data are representative of n=3 individual mice.
Cells were stained and acquired on a Fortessa (BD Biosciences). […] For staining of nuclear-located marker Eomes, the Transcription Factor Staining Buffer Set (eBioscience) was used, according to the manufacturer's instructions. For staining of intracellular cytokines, OT-I cells were re-stimulated with […] peptide for 4 h with GolgiStop solution (BD). For ^1H-NMR experiments, CD8^+ T-lymphocytes were sorted from total splenocytes by immunostaining with anti-mouse CD8-AF647 (Biolegend) on a MoFlo (Beckman Coulter). Cells were then activated and cultured as described above.

HIF-2a = assay: Immunoblot on nuclear extracts for HIF-2a in treated CD8+ T-lymphocytes; format: cell-based, mouse; details: 0.5 mM, 1 day or 7 days of treatment
Procedure: (§3) The arrow indicates HIF-2a protein.
as §2

human CD8^+ T cells = assay: Experiments with human CD8+ T cells (CCR7, CD45RO flow cytometry); format: cell-based; details: 14 days; 600 μM S-2HG-octyl ester or 800 μM R-2HG-octyl ester versus vehicle
Procedure: Numbers in dot plots represent the percentage of cells present in the corresponding quadrant defined by CCR7 and CD45RO expression.
Human CD8^+ T cells were magnetically isolated from blood of healthy donors after gradient centrifugation. Incubation with microbeads conjugated to anti-human CD8 antibodies (Miltenyi 130-097-057) was followed by magnetic bead isolation on a MACS column. Purified human CD8^+ T cells were activated with αCD3 and αCD28 coated beads (Dynabeads, 111.61D) and expanded in the presence of recombinant human IL-2 (30 Ul/mL, Roche 11011456001).
Cells were stained and acquired on a Fortessa (BD Biosciences). The following fluorophores and fluorophore-conjugated antibodies were used: anti-CD62L (Biolegend, MEL-14), anti-CD44 (Biolegend, IM7), anti-CD8a (Biolegend, 53-6.7), anti-CD45.1 (Biolegend, A20), anti-CD45.2 (Biolegend, 104), anti-CD127 (Biolegend, A7R34), anti-KLRG1 (Biolegend, 2F1/KLRG1), anti-CD19 (Biolegend, 6D5), anti-Bcl-2 (Biolegend, BCL/10C4), Eomes (eBioscience, Danlimag), PD-1 (Biolegend, 29F.1A12), […], H-2Kb/SIINFEKL Pentamer-PE (Proimmune, F093-2A), CFSE (Life Technologies), LIVE/DEAD Violet (Life Technologies), PI-AnnexinV (Biolegend, 640928), anti-Bcl-xl-PE (Cell Signalling Technologies, 54H6). For staining of nuclear-located marker Eomes, the Transcription Factor Staining Buffer Set (eBioscience) was used, according to the manufacturer's instructions. For staining of intracellular cytokines, OT-I cells were re-stimulated with SIINFEKL peptide for 4 h with GolgiStop solution (BD). For ^1H-NMR experiments, CD8^+ T-lymphocytes were sorted from total splenocytes by immunostaining with anti-mouse CD8-AF647 (Biolegend) on a MoFlo (Beckman Coulter). Cells were then activated and cultured as described above. For staining of human T cells, CD8^+ T cells were incubated at 37 C for 30 minutes in the presence of anti-CCR7 antibody (eBioscience 12-1979-41), followed by staining with anti-CD45RO antibody (Biolegend, UCHL1).
For experiments with human CD8^+ T cells, cells were magnetically isolated, activated and plated at a concentration of 1×10^6 cells per mL in the presence of 30 UI/mL of recombinant human IL-2. […] On day 14, the surface expression of CCR7 and CD45RO on alive CD8^+ cells was measured by flow cytometry.

HIF-1α = assay: Immunoblot of nuclear fractions for HIF-1α in treated CD8+ T-lymphocytes; format: cell-based, mouse; details: for abundance of HIF-1α protein at 7 days of continuous treatment: 0.5 mM
Procedure: as §1, §3, §2

| Compound | phosphorylation of PDH-E1a (PDH-E1α) | mTOR signalling (mTOR) | ability to survive in the absence of IL-2 supplementation (OT-I CD8^+ T-lymphocytes) | CD62L effect when treating CD62L^low CD44^high effector cells (CD8^+ T-lymphocytes) | reversibility of the CD62L effect upon withdrawal of treatment (CD8^+ T-lymphocytes) | formation of a CD62L^high CD44^high population (CD8^+ T-lymphocytes) | effect on CD62L when HIF-1α is absent (CD8^+ T-lymphocytes) | CD62L downregulation in HIF-2a null cells (CD8^+ T-lymphocytes) | abundance of HIF-2a protein (HIF-2a) | expression of CCR7 (human CD8^+ T cells) | expression of CD45RO (human CD8^+ T cells) | abundance of HIF-1α protein at 7 days of continuous treatment (HIF-1α) | HIF-1α stabilization (HIF-1α; increasing concentrations of octyl ester, 16 hours, activated CD8+ T-lymphocytes) |
| --- | --- | --- | --- | --- | --- | --- | --- | --- | --- | --- | --- | --- | --- |
| CCCCCCCCOC(=O)[C@H](O)CCC(=O)O [R-2HG-octyl ester] | increased | does not inhibit | elevated ability to survive | does not occur | reversible | promotes the formation | masks the effects | inhibits CD62L downregulation | increase in the abundance | induced the expression | induced the expression | increase in abundance is seen | – |
| CCCCCCCCOC(=O)[C@@H](O)CCC(=O)O [S-2HG-octyl ester, S-2HG octyl ester] | increased | does not inhibit | elevated ability to survive | does not occur | reversible | promotes the formation | masks the effects | inhibits CD62L downregulation | increase in the abundance | induced the expression | induced the expression | increase in abundance is seen | stabilized |
